Measurements as given in patent US20240082274A1, “FUNGAL COMPOUND COMPOSITIONS AND METHODS FOR MODULATING INFLAMMATION” (TURTLE BEAR HOLDINGS, LLC, priority 2021, published 2024).

Key:
p38-alpha (MAPK14) = biological target: T1, p38-alpha (MAPK14) (Homo sapiens, UniProt Q16539); experiment: MAPK binding affinity screen (DiscoveRx); settings: component alone
T1 construct: purchased DiscoveRx

JNK3 (MAPK10) = biological target: T2, JNK3 (MAPK10) (Homo sapiens, UniProt P53779); experiment: MAPK binding affinity screen (DiscoveRx); settings: component alone
T2 construct: purchased DiscoveRx

TRKA (NTRK1) = biological target: T3, TRKA (NTRK1) (Homo sapiens, UniProt P04629); experiment: MAPK binding affinity screen (DiscoveRx); settings: component alone
T3 construct: purchased DiscoveRx

TRKB (NTRK2) = biological target: T4, TRKB (NTRK2) (Homo sapiens, UniProt Q16620); experiment: MAPK binding affinity screen (DiscoveRx); settings: component alone, row of combination at 5 μg/mL
T4 construct: purchased DiscoveRx

[1] = biological target: T5, JAK1 (JH1domain-catalytic) (Homo sapiens, UniProt P23458); experiment: MAPK binding affinity screen (DiscoveRx); settings: component alone
T5 construct: (JH1domain-; purchased DiscoveRx

ROCK2 = biological target: T6, ROCK2 (Homo sapiens, UniProt O75116); experiment: MAPK binding affinity screen (DiscoveRx); settings: component alone, row of combination at 62.5 μg/mL
T6 construct: purchased DiscoveRx

[2] = cited from earlier work
PC12 cells = experiment: Neurite outgrowth in rat PC12 cells; format: cell-based; settings: 6 days
Source text: Rat PC12 cells are a cell line derived from rat pheochromocytoma and are an immortalised cell line similar to the primary culture of fetal neurons. These cells are relatively easy to passage and culture and have some features of neurons, which makes them useful in the study of nerve physiology and pharmacology.

TNF-α = TNF-α expression in LPS-induced human PBMCs; format: cell-based; settings: 100 ng/mL LPS, individual components, FIG. 13
IL-10 = IL-10 expression in human PBMCs under standard non-inflammatory conditions; format: cell-based; settings: at multiple concentrations
Description: In a separate experiment, human peripheral blood mononuclear cells (PBMCs) were treated with different concentrations of norbaeocystin, norpsilocin, and vehicle control under standard non-inflammatory conditions, and IL-10 expression was measured.

IL-6 = settings: human PBMCs, 100 ng/mL LPS; 0.43 μg/mL; FIG. 12
Description: Human PBMCs were treated with 100 ng/mL LPS to induce inflammatory conditions.

MAPK = MAPK binding screen, general statements; settings: low ng concentrations
Source text: It was identified that many combination formulations of tryptamines, He/PEP/Erinacine C, and niacin can interact with several mitogen-activated protein kinases (MAPKs) involved with brain health and can even provide synergistic benefits (Tables 7-8).
It was surprising and unexpected that such dilute psilocin at low ng concentrations produced a synergistic effect on MAPK binding when combined with other components because these low concentrations had no effect on MAPK binding when used alone. Therefore, one would have expected these low concentrations to be ineffective. The low concentrations also overcome the pharmacodynamic issues faced when using high concentrations of psilocin.

5-HT2A receptor = 5-HT2A receptor (Homo sapiens, UniProt P28223); settings: Flanagan and Nichols, 2018; cited from earlier work
[3] = Flanagan and Nichols, 2018; cited from earlier work
MAO-A = biological target: T7, MAO-A (Homo sapiens, UniProt P21397); settings: Herraiz et al., 2010; cited from earlier work
T7 sequence (P21397 1-527): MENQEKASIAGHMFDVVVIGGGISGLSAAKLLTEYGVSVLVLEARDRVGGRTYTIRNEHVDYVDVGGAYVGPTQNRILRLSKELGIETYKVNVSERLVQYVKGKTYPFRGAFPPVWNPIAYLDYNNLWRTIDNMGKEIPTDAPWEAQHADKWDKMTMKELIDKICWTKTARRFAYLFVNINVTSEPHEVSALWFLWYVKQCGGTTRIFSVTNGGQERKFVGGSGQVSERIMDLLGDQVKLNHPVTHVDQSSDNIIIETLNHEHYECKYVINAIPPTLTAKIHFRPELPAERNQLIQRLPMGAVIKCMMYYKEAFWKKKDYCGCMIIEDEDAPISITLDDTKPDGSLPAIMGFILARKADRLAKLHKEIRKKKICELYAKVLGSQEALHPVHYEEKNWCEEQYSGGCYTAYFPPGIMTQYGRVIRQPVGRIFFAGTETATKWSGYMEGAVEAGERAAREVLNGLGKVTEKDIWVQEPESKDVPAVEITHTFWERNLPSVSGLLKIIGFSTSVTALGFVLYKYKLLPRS

MAO-B = biological target: T8, MAO-B (Homo sapiens, UniProt P27338); settings: Herraiz et al., 2010; cited from earlier work
T8 sequence (P27338 1-520): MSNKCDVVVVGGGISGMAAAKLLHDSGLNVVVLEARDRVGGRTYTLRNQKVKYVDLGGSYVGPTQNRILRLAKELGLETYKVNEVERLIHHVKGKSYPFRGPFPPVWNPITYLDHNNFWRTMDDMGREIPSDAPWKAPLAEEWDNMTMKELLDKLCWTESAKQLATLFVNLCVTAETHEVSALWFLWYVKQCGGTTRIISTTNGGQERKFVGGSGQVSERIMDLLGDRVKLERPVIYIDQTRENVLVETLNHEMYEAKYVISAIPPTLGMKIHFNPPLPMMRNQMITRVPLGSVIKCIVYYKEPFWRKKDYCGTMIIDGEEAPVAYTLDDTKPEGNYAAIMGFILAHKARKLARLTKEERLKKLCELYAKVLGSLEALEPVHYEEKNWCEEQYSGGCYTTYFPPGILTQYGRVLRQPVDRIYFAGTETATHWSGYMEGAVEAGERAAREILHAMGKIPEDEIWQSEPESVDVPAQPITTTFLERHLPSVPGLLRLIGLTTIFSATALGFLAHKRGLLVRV

[4] = row of combination at 125 μg/mL
[5] = row of combination at 2.5 μg/mL
[6] = row of combination at 0.6, 0.6 ng/mL
[7] = row of combination at 250 μg/mL
[8] = row of combination at 16, 16 ng/mL
[9] = row of combination at 3, 0.2 ng/mL

T2 sequence (P53779 whole entry): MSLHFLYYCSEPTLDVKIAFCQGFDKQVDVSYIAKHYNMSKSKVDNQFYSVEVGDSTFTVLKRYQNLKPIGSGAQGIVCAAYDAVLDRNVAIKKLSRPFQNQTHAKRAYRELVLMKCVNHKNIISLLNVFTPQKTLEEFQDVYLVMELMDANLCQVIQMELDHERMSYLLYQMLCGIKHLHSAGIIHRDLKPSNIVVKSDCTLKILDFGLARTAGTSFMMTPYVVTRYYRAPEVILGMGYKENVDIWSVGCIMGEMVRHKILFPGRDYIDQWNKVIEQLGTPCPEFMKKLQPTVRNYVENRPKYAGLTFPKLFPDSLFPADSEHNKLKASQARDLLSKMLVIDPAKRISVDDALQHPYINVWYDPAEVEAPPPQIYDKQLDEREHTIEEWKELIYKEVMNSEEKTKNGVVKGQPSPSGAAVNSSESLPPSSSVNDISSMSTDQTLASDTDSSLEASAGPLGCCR
T1 sequence (Q16539 whole entry): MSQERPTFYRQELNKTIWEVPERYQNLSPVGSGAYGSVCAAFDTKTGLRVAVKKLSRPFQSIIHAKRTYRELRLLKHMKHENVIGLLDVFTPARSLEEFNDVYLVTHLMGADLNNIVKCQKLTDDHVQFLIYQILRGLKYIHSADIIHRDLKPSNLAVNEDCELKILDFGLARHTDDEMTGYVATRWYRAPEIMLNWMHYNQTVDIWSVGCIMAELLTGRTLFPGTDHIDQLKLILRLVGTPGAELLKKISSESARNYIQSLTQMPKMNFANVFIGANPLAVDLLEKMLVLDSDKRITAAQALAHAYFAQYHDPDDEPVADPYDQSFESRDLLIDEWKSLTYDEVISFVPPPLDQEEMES
T3 sequence (P04629 33-796): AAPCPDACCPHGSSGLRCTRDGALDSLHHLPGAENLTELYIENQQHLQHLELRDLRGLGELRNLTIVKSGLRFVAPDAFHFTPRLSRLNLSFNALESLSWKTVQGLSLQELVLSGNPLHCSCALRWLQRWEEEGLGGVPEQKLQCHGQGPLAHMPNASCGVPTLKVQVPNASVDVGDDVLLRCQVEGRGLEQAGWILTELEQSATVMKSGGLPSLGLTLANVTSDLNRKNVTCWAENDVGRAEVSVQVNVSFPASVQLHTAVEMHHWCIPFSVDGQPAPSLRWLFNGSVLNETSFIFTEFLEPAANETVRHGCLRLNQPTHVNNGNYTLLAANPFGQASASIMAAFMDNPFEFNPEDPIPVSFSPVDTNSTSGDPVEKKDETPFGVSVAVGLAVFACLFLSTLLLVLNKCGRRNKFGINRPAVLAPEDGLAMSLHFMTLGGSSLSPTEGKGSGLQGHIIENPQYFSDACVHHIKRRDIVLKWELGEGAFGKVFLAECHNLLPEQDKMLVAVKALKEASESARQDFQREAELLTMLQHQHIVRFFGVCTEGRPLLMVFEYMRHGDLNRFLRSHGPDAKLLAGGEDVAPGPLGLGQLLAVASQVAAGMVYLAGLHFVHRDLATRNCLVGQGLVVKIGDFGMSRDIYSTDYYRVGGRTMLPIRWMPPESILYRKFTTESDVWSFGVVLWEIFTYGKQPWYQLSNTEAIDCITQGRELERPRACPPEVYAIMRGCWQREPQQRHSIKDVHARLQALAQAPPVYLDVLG
T5 sequence (P23458 875-1153 limits assumed): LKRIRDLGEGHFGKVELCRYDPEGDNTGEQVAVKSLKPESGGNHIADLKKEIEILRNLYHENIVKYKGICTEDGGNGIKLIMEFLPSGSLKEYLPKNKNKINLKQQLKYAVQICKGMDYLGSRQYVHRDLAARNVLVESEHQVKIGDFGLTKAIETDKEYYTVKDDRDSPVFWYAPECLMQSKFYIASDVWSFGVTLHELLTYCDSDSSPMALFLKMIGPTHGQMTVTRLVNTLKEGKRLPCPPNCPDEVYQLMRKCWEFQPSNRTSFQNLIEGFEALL
T4 sequence (Q16620 32-822): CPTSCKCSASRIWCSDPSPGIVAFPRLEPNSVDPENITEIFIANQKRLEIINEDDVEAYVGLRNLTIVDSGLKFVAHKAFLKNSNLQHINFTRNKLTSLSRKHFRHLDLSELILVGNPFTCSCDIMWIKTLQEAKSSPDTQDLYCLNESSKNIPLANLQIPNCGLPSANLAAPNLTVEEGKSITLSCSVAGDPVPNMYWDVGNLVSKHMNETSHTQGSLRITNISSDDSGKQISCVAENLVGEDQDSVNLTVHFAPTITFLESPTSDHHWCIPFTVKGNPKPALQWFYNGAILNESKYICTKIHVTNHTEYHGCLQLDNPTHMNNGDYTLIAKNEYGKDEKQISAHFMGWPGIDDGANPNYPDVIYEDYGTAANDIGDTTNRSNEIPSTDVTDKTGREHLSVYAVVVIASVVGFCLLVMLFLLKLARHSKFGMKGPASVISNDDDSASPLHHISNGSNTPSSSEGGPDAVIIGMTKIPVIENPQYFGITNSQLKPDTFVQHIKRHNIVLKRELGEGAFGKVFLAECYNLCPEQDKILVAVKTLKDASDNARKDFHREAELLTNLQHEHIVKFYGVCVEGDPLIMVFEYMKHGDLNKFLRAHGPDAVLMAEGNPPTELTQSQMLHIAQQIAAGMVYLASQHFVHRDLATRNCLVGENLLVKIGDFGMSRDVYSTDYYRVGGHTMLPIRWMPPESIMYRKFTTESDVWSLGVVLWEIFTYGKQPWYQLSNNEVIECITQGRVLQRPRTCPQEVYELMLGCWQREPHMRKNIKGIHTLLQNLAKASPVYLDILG
T6 sequence (O75116 whole entry): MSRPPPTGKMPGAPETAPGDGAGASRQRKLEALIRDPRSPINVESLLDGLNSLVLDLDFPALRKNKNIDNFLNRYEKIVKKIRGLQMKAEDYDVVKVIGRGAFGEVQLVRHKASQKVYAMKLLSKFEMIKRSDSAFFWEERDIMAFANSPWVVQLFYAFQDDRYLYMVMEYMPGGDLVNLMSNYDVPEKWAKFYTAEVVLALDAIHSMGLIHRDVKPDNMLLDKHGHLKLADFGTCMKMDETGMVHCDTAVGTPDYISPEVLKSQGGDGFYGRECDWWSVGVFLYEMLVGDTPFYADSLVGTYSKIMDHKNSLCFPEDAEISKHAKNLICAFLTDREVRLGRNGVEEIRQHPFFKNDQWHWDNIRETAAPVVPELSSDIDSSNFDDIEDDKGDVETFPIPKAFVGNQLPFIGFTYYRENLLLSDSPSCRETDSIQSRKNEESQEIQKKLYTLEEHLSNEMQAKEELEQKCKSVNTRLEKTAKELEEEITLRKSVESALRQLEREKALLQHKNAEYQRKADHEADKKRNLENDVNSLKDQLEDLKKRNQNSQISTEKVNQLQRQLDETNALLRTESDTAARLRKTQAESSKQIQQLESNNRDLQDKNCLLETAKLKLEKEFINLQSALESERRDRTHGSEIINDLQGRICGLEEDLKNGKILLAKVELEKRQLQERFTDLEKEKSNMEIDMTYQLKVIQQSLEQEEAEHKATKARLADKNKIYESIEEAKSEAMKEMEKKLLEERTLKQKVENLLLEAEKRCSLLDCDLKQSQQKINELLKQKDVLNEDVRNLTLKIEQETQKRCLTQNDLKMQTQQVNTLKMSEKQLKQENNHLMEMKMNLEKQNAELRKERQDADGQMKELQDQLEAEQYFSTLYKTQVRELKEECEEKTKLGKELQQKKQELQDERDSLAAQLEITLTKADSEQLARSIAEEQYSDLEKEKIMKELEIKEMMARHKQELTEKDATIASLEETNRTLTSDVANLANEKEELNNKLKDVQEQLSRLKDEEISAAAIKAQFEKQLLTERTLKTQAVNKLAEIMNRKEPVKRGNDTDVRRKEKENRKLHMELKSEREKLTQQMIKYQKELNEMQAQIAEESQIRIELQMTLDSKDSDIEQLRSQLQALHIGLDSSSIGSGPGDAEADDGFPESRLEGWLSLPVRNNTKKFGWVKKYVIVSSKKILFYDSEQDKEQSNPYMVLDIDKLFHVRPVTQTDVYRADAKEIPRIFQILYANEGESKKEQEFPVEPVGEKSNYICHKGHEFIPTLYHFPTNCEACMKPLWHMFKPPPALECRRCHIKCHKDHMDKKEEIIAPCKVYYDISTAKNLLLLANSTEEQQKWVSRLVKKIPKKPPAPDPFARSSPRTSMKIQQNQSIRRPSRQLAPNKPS
Sequence of 5-HT2A receptor (P28223 whole entry): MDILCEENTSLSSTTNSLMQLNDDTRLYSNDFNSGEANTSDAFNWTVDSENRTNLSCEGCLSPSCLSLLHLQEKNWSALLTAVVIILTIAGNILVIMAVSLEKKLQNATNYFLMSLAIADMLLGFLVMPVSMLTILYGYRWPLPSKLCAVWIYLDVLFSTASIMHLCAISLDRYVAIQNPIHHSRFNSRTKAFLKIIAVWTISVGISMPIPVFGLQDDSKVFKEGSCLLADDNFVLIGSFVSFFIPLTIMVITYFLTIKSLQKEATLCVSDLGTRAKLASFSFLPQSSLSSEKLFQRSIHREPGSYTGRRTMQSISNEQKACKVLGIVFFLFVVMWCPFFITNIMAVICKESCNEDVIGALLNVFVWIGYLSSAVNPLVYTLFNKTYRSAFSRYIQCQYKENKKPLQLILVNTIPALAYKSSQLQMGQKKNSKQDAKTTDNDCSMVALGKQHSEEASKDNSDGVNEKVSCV

## CNCCc1c[nH]c2cccc(OP(=O)(O)O)c12 [Baeo, 4-phosphoryloxy-N-methyltryptamine]
p38-alpha (MAPK14); combinations at 2.5 μg/mL
  MAPK binding affinity value of individual component: 2
p38-alpha (MAPK14); combinations at 5 μg/mL
  MAPK binding affinity value of individual component: 9
p38-alpha (MAPK14); combinations at 10 μg/mL
  MAPK binding affinity value of individual component: 1
p38-alpha (MAPK14); combinations at 250 μg/mL
  MAPK binding affinity value of individual component: 1
JNK3 (MAPK10); [4]
  MAPK binding affinity value of individual component: 8
TRKA (NTRK1); combinations at 250 μg/mL
  MAPK binding affinity value of individual component: 6
TRKA (NTRK1); [4]
  MAPK binding affinity value of individual component: 3
TRKB (NTRK2)
  MAPK binding affinity value of individual component: 12
[1]; [5]
  MAPK binding affinity value of individual component: 1
ROCK2
  MAPK binding affinity value of individual component: 0
[2]; 4 mg, anecdotal, Gartz 1991
  hallucinogenic effect after consumption: gentle hallucinogenic experience
[2]; 10 mg and 20 mg, case studies
  hallucinogenic effect after oral consumption: did not produce any hallucinogenic effects

## O=C(O)c1cccnc1 [Niacin, nicotinic acid, reference compound]
JNK3 (MAPK10); [6]
  MAPK binding affinity value of individual component: 0
[1]; [7]
  MAPK binding affinity value of individual component: 6
[1]; [8]
  MAPK binding affinity value of individual component: 5
PC12 cells; 0.35 μg/mL
  highest mean neurite outgrowth, of vehicle control: 112%
TNF-α
  anti-inflammatory effect (TNF-α expression): have anti-inflammatory effects at certain concentrations

## NCCc1c[nH]c2cccc(OP(=O)(O)O)c12 [Norbaeo, 4-phosphoryloxy-tryptamine]
p38-alpha (MAPK14); combinations at 2.5 μg/mL
  MAPK binding affinity value of individual component: 22
p38-alpha (MAPK14); combinations at 5 μg/mL
  MAPK binding affinity value of individual component: 12
p38-alpha (MAPK14); combinations at 10 μg/mL
  MAPK binding affinity value of individual component: 17
JNK3 (MAPK10); row of combination at 5 μg/mL
  MAPK binding affinity value of individual component: 4
JNK3 (MAPK10); [4]
  MAPK binding affinity value of individual component: 4
TRKA (NTRK1); combinations at 250 μg/mL
  MAPK binding affinity value of individual component: 3
TRKB (NTRK2)
  MAPK binding affinity value of individual component: 0
[1]; [5]
  MAPK binding affinity value of individual component: 3
[1]; rows of combinations at 62.5 μg/mL
  MAPK binding affinity value of individual component: 3
IL-10
  expression of the anti-inflammatory cytokine IL-10: significantly upregulate
IL-6
  IL-6 expression: significantly reduced

## CNCCc1c[nH]c2cccc(O)c12 [Norpsilo, 4-hydroxy-N-methyl-tryptamine]
p38-alpha (MAPK14); combinations at 2.5 μg/mL
  MAPK binding affinity value of individual component: 15
p38-alpha (MAPK14); combinations at 5 μg/mL
  MAPK binding affinity value of individual component: 1
p38-alpha (MAPK14); combinations at 10 μg/mL
  MAPK binding affinity value of individual component: 21
p38-alpha (MAPK14); combinations at 250 μg/mL
  MAPK binding affinity value of individual component: 21
JNK3 (MAPK10); row of combination at 5 μg/mL
  MAPK binding affinity value of individual component: 19
[1]; [7]
  MAPK binding affinity value of individual component: 0
IL-10
  expression of the anti-inflammatory cytokine IL-10: significantly upregulate
TNF-α
  anti-inflammatory effect (TNF-α expression): have anti-inflammatory effects at certain concentrations

## CN(C)CCc1c[nH]c2cccc(O)c12 [Psilocin, 4-hydroxy-N,N-dimethyltryptamine]
JNK3 (MAPK10); [6]
  MAPK binding affinity value of individual component: 1
JNK3 (MAPK10); [9]
  MAPK binding affinity value of individual component: 2
[1]; row of combination at 30, 1.8 ng/mL
  MAPK binding affinity value of individual component: 1
PC12 cells; 0.043 μg/mL
  highest mean neurite outgrowth, of vehicle control: 168%
MAPK
  effect on MAPK binding when used alone: no effect

## COc1cc(C[C@@H](C)N)c(OC)cc1I [(R)-2,5-dimethoxy-4-iodoamphetamine]
5-HT2A receptor
  5-HT2A receptor activation: activate the 5-HT2A receptor
[3]
  inflammation in the lungs: prevent and reverse inflammation in the lungs

## COc1ccc2c(c1)[nH]c1c(C)nccc12 [Harmine, 7-methyoxy-1-methyl-carboline]
MAO-A
  MAO-A inhibition: specific MAO-A inhibitors
MAO-B
  MAO-B inhibition: poor inhibitors of MAO-B

## CN(C)CCc1c[nH]c2ccccc12 [DMT, N,N-dimethyltryptamine]
[1]; [8]
  MAPK binding affinity value of individual component: 5

## CC(C)C1=C2C3=CC=C(CO)[C@H]4O[C@H]5[C@@H](OC[C@@H](O)[C@@H]5O)O[C@@H]4[C@]3(C)CC[C@@]2(C)CC1 [Erinacine C]
JNK3 (MAPK10); [9]
  MAPK binding affinity value of individual component: 6

## COc1ccc2c3c([nH]c2c1)C(C)=NCC3 [harmaline, 3,4-dihydro-7-methoxy-1-methyl-carboline]
MAO-A
  MAO-A inhibition: specific MAO-A inhibitors
MAO-B
  MAO-B inhibition: poor inhibitors of MAO-B
